Each molecule was assayed on α-SMA (assay: in vitro α-SMA expression inhibition (immunostaining, confocal microscopy) in TGF-β1-treated MRC-5 cells). Conditions: Homo sapiens, TGF-β1 (5 ng/mL), 72 hours, standardized using GAPDH.
Type: cell-based, human
Excerpt: When scars are generated in tissue, fibroblasts undergo fibroblast-to-myofibroblast transition (FMT), and the resulting myofibroblasts produce the extracellular matrix, leading to tissue fibrosis. α-SMA is a representative biomarker of myofibroblasts, and its expression greatly increases as FMT progresses. Accordingly, through the evaluation of α-SMA expression inhibitory activity, the efficacy of the compounds in inhibiting fibrosis may be evaluated. Therefore, the inhibitory activity of the compounds of the present invention on α-SMA expression was evaluated in cells. To more accurately evaluate the inhibition of α-SMA expression, IC50 values were determined by treating human lung-derived fibroblasts (MRC-5 cells) with the compounds of the present invention in a concentration-dependent manner.
Specifically, 2 hours after the MRC-5 cells were treated with DMSO or compounds dissolved in serum containing 0.5% fetal bovine serum (FBS) in a concentration-dependent manner, fibrosis was induced by treatment with TGF-β1 (5 ng/mL). After 72 hours, the cells were immobilized with a 2% paraformaldehyde solution for 10 minutes, and to impart cell membrane permeability, a 0.1% Triton X-100 solution was treated for 10 minutes, and a 1% bovine serum albumin (BSA) solution was treated to prevent non-specific binding. For immunostaining, anti-GAPDH (BIO-RAD) was first treated as a primary antibody, and Alexa Fluor™ Plus 555 for GAPDH labeling was used as a secondary antibody. For α-SMA staining, an FITC fluorescence-tagged α-SMA primary antibody was used, and thus the increase and decrease in α-SMA caused by the compounds were evaluated. The immunohistochemical experimental results were confirmed with a STELLARIS 5 confocal microscope (Leica), and FITC-stained α-SMA was standardized using GAPDH labeled with Alexa FluorTM Plus 555 for quantification. The IC50 of the compounds according to the present invention was calculated through statistical analysis (linear mixed effects model). […]
In the case of O=C(NCC1CC1)N1CCN(c2ccc(F)cc2)c2cc(F)ccc21 [Compound 3, N-(cyclopropylmethyl)-6-fluoro-4-(4-fluorophenyl)-3,4-dihydroquinoxaline-1(2H)-carboxamide], the IC50 is reported as 1 to 10 µM.
O=C(NCC1CC1)N1CCN(c2ccc(F)cc2)c2ccccc21 [Compound 6, N-(cyclopropylmethyl)-4-(4-fluorophenyl)-3,4-dihydroquinoxaline-1(2H)-carboxamide] showed an IC50 of 1 to 10 µM.
Work on O=C(N1CCCC1)N1CCN(c2ccccc2Cl)c2ccccc21 [Compound 8, (4-(2-chlorophenyl)-3,4-dihydroquinoxaline-1(2H)-yl)(pyrrolidin-1-yl)methanone] yielded an IC50 of 10 to 30 µM.
In the case of O=C(N1CCOCC1)N1CCN(c2ccccc2Cl)c2ccccc21 [Compound 9, (4-(2-chlorophenyl)-3,4-dihydroquinoxaline-1(2H)-yl)(morpholino)methanone], the IC50 is reported as no more than 30 µM.
O=C(N1CCNCC1)N1CCN(c2ccccc2Cl)c2ccccc21 [Compound 10, (4-(2-chlorophenyl)-3,4-dihydroquinoxaline-1(2H)-yl)(piperazin-1-yl)methanone] was tested, and the IC50 was less than 1 µM.
CC(C)N1CC[C@H](NC(=O)N2CCN(c3ccccn3)c3ccccc32)C1 [Compound 11, (S)-N-(1-isopropylpyrrolidin-3-yl)-4-(pyridin-2-yl)-3,4-dihydroquinoxaline-1(2H)-carboxamide] was tested, and the IC50 was 1 to 10 µM.
N[C@H]1CCN(C(=O)N2CCN(c3ccccn3)c3ccccc32)C1 [Compound 12, (S)-(3-aminopyrrolidin-1-yl)(4-(pyridin-2-yl)-3,4-dihydroquinoxaline-1(2H)-yl)methanone] showed an IC50 of no more than 30 µM.
O=C(NC1CCNCC1)N1CCN(c2ccccn2)c2ccccc21 [Compound 13, N-(piperidin-4-yl)-4-(pyridin-2-yl)-3,4-dihydroquinoxaline-1(2H)-carboxamide] gave an IC50 of 1 to 10 µM.
Molecule O=C(NC[C@@H]1CCNC1)N1CCN(c2ccccn2)c2ccccc21 [Compound 14, (R)-4-(pyridin-2-yl)-N-(pyrrolidin-3-ylmethyl)-3,4-dihydroquinoxaline-1(2H)-carboxamide] has an IC50 of 1 to 10 µM.
In the case of O=C(NC[C@H]1CCCN1)N1CCN(c2ccccn2)c2ccccc21 [Compound 15, (R)-4-(pyridin-2-yl)-N-(pyrrolidin-2-ylmethyl)-3,4-dihydroquinoxaline-1(2H)-carboxamide], the IC50 is reported as less than 1 µM.
O=C(N[C@@H]1CCOC1)N1CCN(c2cccnc2)c2ccccc21 [Compound 16, (R)-4-(pyridin-3-yl)-N-(tetrahydrofuran-3-yl)-3,4-dihydroquinoxaline-1 (2H)-carboxamide] showed an IC50 of 1 to 10 µM.
With CN1CCC(NC(=O)N2CCN(c3ccc(F)cn3)c3ccccc32)CC1 [Compound 18, 4-(5-fluoropyridin-2-yl)-N-(1-methylpiperidin-4-yl)-3,4-dihydroquinoxaline-1(2H)-carboxamide] the IC50 was 1 to 10 µM.
With O=C(N[C@H]1CCNC1)N1CCN(c2cnccn2)c2ccccc21 [Compound 19, (S)-4-(pyrazin-2-yl)-N-(pyrrolidin-3-yl)-3,4-dihydroquinoxaline-1(2H)-carboxamide] the IC50 was 1 to 10 µM.
CN1CC[C@H](NC(=O)N2CCN(c3cnccn3)c3ccccc32)C1 [Compound 20, (S)-N-(1-methylpyrrolidin-3-yl)-4-(pyrazin-2-yl)-3,4-dihydroquinoxaline-1(2H)-carboxamide] was tested, and the IC50 was less than 1 µM.
CC(C)CN1CC[C@H](NC(=O)N2CCN(c3cnccn3)c3ccccc32)C1 [Compound 22, (S)-N-(1-isobutylpyrrolidin-3-yl)-4-(pyrazin-2-yl)-3,4-dihydroquinoxaline-1(2H)-carboxamide] showed an IC50 of no more than 30 µM.
In the case of O=C(NC1CCNCC1)N1CCN(c2cnccn2)c2ccccc21 [Compound 23, N-(piperidin-4-yl)-4-(pyrazin-2-yl)-3,4-dihydroquinoxaline-1(2H)-carboxamide], the IC50 is reported as 1 to 10 µM.
For CC(C)CN1CCC(NC(=O)N2CCN(c3cnccn3)c3ccccc32)CC1 [Compound 27, N-(1-isobutylpiperidin-4-yl)-4-(pyrazin-2-yl)-3,4-dihydroquinoxaline-1(2H)-carboxamide], the IC50 was 10 to 30 µM.
Molecule CN1CCC(NC(=S)N2CCN(c3cnccn3)c3ccccc32)CC1 [Compound 29, N-(1-methylpiperidin-4-yl)-4-(pyrazin-2-yl)-3,4-dihydroquinoxaline-1 (2H)-carbothioamide] has an IC50 of 1 to 10 µM.
CN1CC[C@@H](COC(=O)N2CCN(c3cnccn3)c3ccccc32)C1 [Compound 31, (R)-(1-methylpyrrolidin-3-yl)methyl-4-(pyrazin-2-yl)-3,4-dihydroquinoxaline-1(2H)-carboxylate] showed an IC50 of 1 to 10 µM.
O=C(N[C@@H]1CCNC1)N1CCN(Cc2ccccc2)c2ccccc21 [Compound 33, (R)-4-benzyl-N-(pyrrolidin-3-yl)-3,4-dihydroquinoxaline-1(2H)-carboxamide] gave an IC50 of 1 to 10 µM.
CN1CC[C@@H](NC(=O)N2CCN(Cc3ccccc3)c3ccccc32)C1 [Compound 34, (R)-4-benzyl-N-(1-methylpyrrolidin-3-yl)-3,4-dihydroquinoxaline-1(2H)-carboxamide] gave an IC50 of 1 to 10 µM.
CN[C@H]1CCN(C(=O)N2CCN(Cc3ccccc3)c3ccccc32)C1 [Compound 36, (S)-(4-benzyl-3,4-dihydroquinoxaline-1(2H)-yl)(3-(methylamino)pyrrolidin-1-yl)methanone] was tested, and the IC50 was 10 to 30 µM.
For N[C@H]1CCN(C(=O)N2CCN(Cc3ccccc3F)c3ccccc32)C1 [Compound 37, (S)-(3-aminopyrrolidin-1-yl)(4-(2-fluorobenzyl)-3,4-dihydroquinoxaline-1(2H)-yl)methanone], the IC50 was 1 to 10 µM.
In the case of CN[C@H]1CCN(C(=O)N2CCN(Cc3ccccc3F)c3ccccc32)C1 [Compound 38, (S)-(4-(2-fluorobenzyl)-3,4-dihydroquinoxaline-1(2H)-yl)(3-(methylamino)pyrrolidin-1-yl)methanone], the IC50 is reported as 1 to 10 µM.
N[C@H]1CCN(C(=O)N2CCN(Cc3cccc(F)c3)c3ccccc32)C1 [Compound 39, (S)-(3-aminopyrrolidin-1-yl)(4-(3-fluorobenzyl)-3,4-dihydroquinoxaline-1(2H)-yl)methanone] showed an IC50 of less than 1 µM.
With CC(C)N[C@H]1CCN(C(=O)N2CCN(Cc3ccc(F)cc3)c3ccccc32)C1 [Compound 42, (S)-(4-(4-fluorobenzyl)-3,4-dihydroquinoxaline-1(2H)-yl)(3-(isopropylamino)pyrrolidin-1-yl)methanone] the IC50 was 1 to 10 µM.
CN(C)[C@H]1CCN(C(=O)N2CCN(Cc3ccccn3)c3ccccc32)C1 [Compound 46, (S)-(3-(dimethylamino)pyrrolidin-1-yl)(4-(pyridin-2-ylmethyl)-3,4-dihydroquinoxaline-1(2H)-yl)methanone] gave an IC50 of no more than 30 µM.
CC(C)N[C@H]1CCN(C(=O)N2CCN(Cc3ccccn3)c3ccccc32)C1 [Compound 47, (S)-(3-(isopropylamino)pyrrolidin-1-yl)(4-(pyridin-2-ylmethyl)-3,4-dihydroquinoxaline-1(2H)-yl)methanone] showed an IC50 of no more than 30 µM.
In the case of O=C(NC[C@H]1CCCN1)N1CCN(Cc2ccccn2)c2ccccc21 [Compound 52, (R)-4-(pyridin-2-ylmethyl)-N-(pyrrolidin-2-ylmethyl)-3,4-dihydroquinoxaline-1(2H)-carboxamide], the IC50 is reported as 1 to 10 µM.
Molecule O=C(NC1CCNCC1)N1CCN(Cc2ccccn2)c2ccccc21 [Compound 53, N-(piperidin-4-yl)-4-(pyridin-2-ylmethyl)-3,4-dihydroquinoxaline-1(2H)-carboxamide] has an IC50 of 1 to 10 µM.
O=C(NC1COC1)N1CCN(Cc2ccccn2)c2ccccc21 [Compound 54, N-(oxetan-3-yl)-4-(pyridin-2-ylmethyl)-3,4-dihydroquinoxaline-1(2H)-carboxamide] gave an IC50 of less than 1 µM.
Molecule CC1(NC(=O)N2CCN(Cc3ccccn3)c3ccccc32)COC1 [Compound 55, N-(3-Methyloxetan-3-yl)-4-(pyridin-2-ylmethyl)-3,4-dihydroquinoxaline-1(2H)-carboxamide] has an IC50 of less than 1 µM.
In the case of O=C(NCC1COC1)N1CCN(Cc2ccccn2)c2ccccc21 [Compound 56, N-(oxetan-3-ylmethyl)-4-(pyridin-2-ylmethyl)-3,4-dihydroquinoxaline-1(2H)-carboxamide], the IC50 is reported as 10 to 30 µM.
For CC1(CNC(=O)N2CCN(Cc3ccccn3)c3ccccc32)COC1 [Compound 57, N-((3-methyloxetan-3-yl)methyl)-4-(pyridin-2-ylmethyl)-3,4-dihydroquinoxaline-1(2H)-carboxamide], the IC50 was no more than 30 µM.
O=C(NCC1CCOC1)N1CCN(Cc2ccccn2)c2ccccc21 (stereo not shown) [Compound 58, 4-(pyridin-2-ylmethyl)-N-((tetrahydrofuran-3-yl)methyl)-3,4-dihydroquinoxaline-1(2H)-carboxamide] showed an IC50 of less than 1 µM.
Work on O=C(NC[C@@H]1CCOC1)N1CCN(Cc2ccccn2)c2ccccc21 [Compound 59, (S)-4-(pyridin-2-ylmethyl)-N-((tetrahydrofuran-3-yl)methyl)-3,4-dihydroquinoxaline-1(2H)-carboxamide] yielded an IC50 of less than 1 µM.
With O=C(NC[C@H]1CCOC1)N1CCN(Cc2ccccn2)c2ccccc21 [Compound 60, (R)-4-(pyridin-2-ylmethyl)-N-((tetrahydrofuran-3-yl)methyl)-3,4-dihydroquinoxaline-1(2H)-carboxamide] the IC50 was 10 to 30 µM.
